Results published in patent US6368618B1, “Composition and method for enhanced transdermal absorption of nonsteroidal anti-inflammatory drugs” (The University of Georgia Research Foundation, Inc., priority 1999, dated 2002).

What was measured:
Type in all cases: physicochemical
[1] = Melt state of ibuprofen in aqueous isopropyl alcohol (optical microscope); design: key: S: solid crystals present (FIG. 1-B); O: no crystals present (FIG. 1-A); details: 25° C.
From the text: The total weight of each mixture was 10 g.
FIG. 1-A represents a two phase melt system with homogeneous oil and aqueous phases, and FIG. 1-B represents a system where complete melt is not achieved. […] (FIG. 1-B). […] (FIG. 1-A).

[2] = Melt state of ibuprofen and thymol in aqueous isopropyl alcohol; details: racemic ibuprofen in place of S(+)-ibuprofen, with thymol and aqueous IPA, samples as in Table 3, 25° C.
Protocol: (10 g total weight). Replicate samples of these mixtures were prepared at 25° C. and were stored at 25, 15, and 4° C. for three months. During storage, the melt states of the composition were examined weekly using an optical microscope. The results are shown in Table 3, where O and S denote systems described as in FIG. 1-A and 1-B, respectively, at the corresponding temperature. […] The lower the SI:T ratio and the higher the alcohol content, the lower the melting range of the solid components in the mixture, as shown by the attainment of the melt state. […] Thus the use of thymol and aqueous isopropyl alcohol in combination allows the preparation of two phase melt systems with the highest possible SI:T ratio and the lowest isopropyl alcohol content at 25° C.

[3] = Melt state of physical mixtures of S(+)-ibuprofen and thymol; details: physical mixtures with thymol
From the text: The melt states of the two compounds were then examined weekly for 3 months using an optical microscope.

[4] = Composition of the oil phase of two phase melt systems by GC-MS; details: oil phase of dispersion with 15% isopropyl alcohol, no thymol
Protocol: The composition of the oil phase formed in the dispersion containing 15% isopropyl alcohol was determined by the gas chromatrography-mass spectrometry (GC-MS) analysis.
After ultracentrifugation at 20,000 rpm for 30 minutes at 25° C. of selected two phase melt systems (Systems I, II, III and IV as shown in Table 3) that had been stored at 25° C. for three months, a portion of the oil phase of these melt systems was removed using a micro-sampling tube and was weighed accurately by a taring method.

Row | Compound | Melt state ([1]; racemic ibuprofen in place of S(+)-ibuprofen, samples as in Table 2, even at 25% IPA or higher) | Melt state [2] | Melt state ([1]; 5% S(+)-ibuprofen, 5% IPA, pH 4.0 acetate buffer, 3 months) | Melt state ([1]; 5% S(+)-ibuprofen, 10% IPA, pH 4.0 acetate buffer, 3 months) | Melt state ([1]; 5% S(+)-ibuprofen, 15% IPA, pH 4.0 acetate buffer, 3 months) | Melt state ([1]; 5% S(+)-ibuprofen, 20% IPA, pH 4.0 acetate buffer, 3 months) | Melt state ([1]; isopropyl alcohol 10% or less by weight of total composition) | Melt state ([1]; isopropyl alcohol 15% or higher) | Melt state ([3]; SI:T ratios 5:5 to 6:4 (w:w), ambient temperature (20-25° C.)) | Melt state ([3]; SI:T ratios outside 5:5 to 6:4 (1:9 to 9:1 tested), 25° C.) | concentration of S(+)-ibuprofen in the oil [4]
1 | CC(C)Cc1ccc(C(C)C(=O)O)cc1 (racemic) [racemic ibuprofen, a-methyl-4-(2-methylpropyl) benzene-acetic acid] | complete melt was never achieved | complete melt of the solids was never achieved |  |  |  |  |  |  |  |  | 
2 | CC(C)Cc1ccc([C@H](C)C(=O)O)cc1 [S(+)-ibuprofen, a-methyl-4-(2-methylpropyl) benzene-acetic acid] |  |  | S | S | O | O | did not completely melt | completely transformed into an oil | spontaneously formed a homogeneous oil | complete melting of the compounds did not occur | 68.4 % (w:w)
